According to patent US11732259B2, “Peptide oligonucleotide conjugates” (Sarepta Therapeutics, Inc., priority 2011, dated 2023):
{EG3} = triethylene glycol 5' cap structure on the morpholino oligomer

What was measured:
[1] = tested on: exon 23 of the dystrophin gene; settings: in vivo; cited from earlier work
[2] = tested on: dystrophin mRNA exon 23; experiment: Exon 23 skipping in MDX mice, end-point PCR on muscle RNA
Procedure: MDX mice were dosed once (50 mg/kg) by tail vein injection with one of the following conjugates:
One week post-injection, the MDX mice were sacrificed and RNA was extracted from various muscle tissues. End-point PCR was used to determine the relative abundance of dystrophin mRNA containing exon 23 and mRNA lacking exon 23 due to antisense-induced exon skipping. Percent exon 23 skipping is a measure of antisense activity in vivo.

[3] = type: in vivo, mouse
Procedure: Mice were treated with the conjugates described in Example 30, and KIM-1 levels, BUN levels and survival rate were determined according to the general procedures described in Example 32 below and known in the art. […]. The day of dosing on the study was designated as Study Day 1. Conjugate was administered via tail vein as a slow push bolus (˜5 seconds). All animals were dosed over two days. Groups 1-8 were dosed on the first day and Groups 9-16 were dosed on the second day. Treatment Groups (TG) 13-16 were dosed per the table above. […] The first 2 TG of each conjugate were dosed per the table above. If all animals in 100 mg/kg group died then the remaining TGs of that test article would not be dosed and the study would end. If at least one animal survived 2 hours post-dose in the 100 mg/kg group, then the 150 mg/kg group was dosed. If all animals in the 150 mg/kg group died then the remaining TGs of that test article would not be dosed and the study would end. […]
Any animal showing signs of distress, particularly if death appeared imminent was humanely euthanized according to Numira Biosciences Standard Operating Procedures. Body weights were recorded on the day after arrival, the day of dosing, and the day of necropsy. Detailed clinical observations were conducted and recorded at 0 minutes, 15 minutes, and 2 hours post-dose to assess tolerability of injections.

[4] = tested on: KIM-1; type: in vivo, mouse; settings: Example 32, FIG. 10; C57/BL6 mice, single i.v. tail vein injection, kidney qRT-PCR vs GAPDH
Procedure: Mice were treated with the conjugates described in Example 30, and KIM-1 levels, BUN levels and survival rate were determined according to the general procedures described in Example 32 below and known in the art. […]. The right and left kidneys were collected. Tissues were collected within minutes or less of euthanasia. All instruments and tools used were changed between treatment groups. All tissues were flash frozen and stored at <−70° C. as soon as possible after collection.
Kidney injury marker data was obtained as follows. RNA from mouse kidney tissue was purified using Quick Gene Mini80 Tissue Kit SII (Fuji Film). Briefly, approximately 40 mg of tissue was added to 0.5 ml lysis buffer (5 μl […] in 0.5 ml lysis buffer) in a MagnaLyser Green Bead vial (Roche) and homogenized using MagNA Lyser (Roche) with 2 sets of 3×3800 RPM and 3 sets of 1×6500 RPM.
Samples were cooled on ice 3-4 minutes between each low speed set and between each higher speed run. Homogenates were centrifuged 5 minute at 400×g at room temperature. The homogenate was immediately processed for RNA purification according to the Quick Gene Mini80 protocol. […] Total RNA was quantitated with a NanoDrop 2000 spectrophotometer (Thermo Scientific). […]
Analysis was performed using ΔΔCt method. […] Fold change range calculated: 2^−(ΔΔCt+SD) to 2^−(ΔΔCt-SD). […]

[5] = tested on: RSV; settings: BALB/c mice, intranasal treatment before RSV inoculation, cited from earlier work
[6] = tested on: RSV; settings: cultures of two human airway cell lines (Lai, Stein et al. 2008); cited from earlier work

5′-EG3-M23D-BX(RXRRBR)2 (GGCCAAACCTCGGCTTACCTGAAAT; all phosphorodiamidate morpholino (PMO), 5' {EG3}; morpholino, carrier peptide BX(RXRRBR)2 conjugated at 3' end) [AVI-5225]
Activity in the MDX mouse model for DMD [1]: activity
Dose response of exon 23 skipping ([2]; one week post-treatment, AVI-5225 compared with the other conjugates): similar

5′-EG3-M23D-G(R)6 [NG-11-0009]
Doses at which all mice survived ([3]; Example 31, data not shown): up to 400 mg/kg
Percent exon 23 skipping, diaphragm ([2]; dosed once 50 mg/kg tail vein, one week post-injection, diaphragm (FIGS. 5B, 6B), amongst the arginine series): highest efficacy
Percent exon 23 skipping, quadriceps ([2]; dosed once 50 mg/kg tail vein, one week post-injection, quadriceps (FIGS. 5A, 6A), amongst the arginine series): highest efficacy
KIM concentrations [4]: lowest

5′-EG3-M23D-G(R)8 [NG-11-0216]
Survival rate ([3]; Example 31, FIG. 7B, compared with the XB linked conjugate / amongst the arginine polymers): least tolerated of the arginine polymers

TAATGGGATCCATTTTGTCCC (all phosphorodiamidate morpholino (PMO); peptide-conjugated morpholino (PPMO), peptide not given here) [RSV-AUG-2, peptide conjugated PMO (PPMO) targeting the translation start-site region of RSV L mRNA]
Reduction in viral titer in lung tissue ([5]; day 5 postinfection): 1.2 log10
Pulmonary inflammation ([5]; day 7 postinfection): attenuated
Reduction of viral titers [6]: > 2.0 log10
